The text below walks through data of US10570075B2, “Compounds” (DSM IP ASSETS B.V., priority 2015, dated 2020).

In the assay the target is T1, human vitamin D receptor (VDR) (Homo sapiens, UniProt P11473).
T1 construct: expressed in transfected cells; host or cells: HEK293 cells (ATCC), transient polyethylene-imine-based transfection
T1 sequence (P11473 127-423 limits assumed): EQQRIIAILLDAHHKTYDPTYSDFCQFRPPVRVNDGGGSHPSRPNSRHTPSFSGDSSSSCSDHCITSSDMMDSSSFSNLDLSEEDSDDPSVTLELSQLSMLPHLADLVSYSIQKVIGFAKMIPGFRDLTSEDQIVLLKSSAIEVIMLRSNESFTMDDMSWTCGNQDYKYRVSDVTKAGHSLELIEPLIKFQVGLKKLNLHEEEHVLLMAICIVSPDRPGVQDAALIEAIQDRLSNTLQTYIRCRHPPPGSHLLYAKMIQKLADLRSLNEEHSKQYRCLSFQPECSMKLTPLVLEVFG
The assay can be described thus: Human vitamin D receptor (VDR) agonist activity, GAL4-VDR LBD luciferase transactivation assay in HEK293 cells. It counts as cell-based. The settings on record: transiently transfected HEK293 cells, VDR LBD-GAL4 DBD hybrid receptor, pFR-Luc luciferase reporter, 16 h incubation; read-out: Effective concentrations of half maximal activation (EC50). An excerpt:
By way of example, the human vitamin D receptor (VDR) agonist activity of the claimed compounds can be tested using a cell based transactivation assay in an eukaryotic cell line. After a co-transfection, using a reporter plasmid construct and a hybrid receptor construct containing the ligand-binding domain of the human VDR linked to the DNA-binding domain of the yeast transcription factor GAL4, the cultured cells were stimulated by the VDR agonists. The hybrid VDR-GAL4 receptor binds the VDR agonists and transactivates luciferase reporter expression through the GAL4-response elements in the promoter of the luciferase gene (reporter construct). The VDR agonist binding and transactivation is determined by measuring the luciferase luminescence activity. The effective concentration of half maximal activation (EC50) was determined for the VDR agonists by means of dose-response experiments. The details of the protocol method of this test according to the invention are described in the example section. […]
(In general: A reporter such as luciferase makes a cellular process visible.)

In the case of `CC/C(=C\C=C\C(O)(C(F)(F)F)C(F)(F)F)c1cccc(CCc2ccc(CO)c(C(C)O)c2)c1` (racemic) [I-a, (3E,5E)-1,1,1-trifluoro-6-(3-(3-(1-hydroxyethyl)-4-(hydroxymethyl)phenethyl)phenyl)-2-(trifluoromethyl)octa-3,5-dien-2-ol], the EC50 worked out at 8 nM.
